Legend:
xenograft tumors [1] = assay: Response of subcutaneous xenograft tumors to MTKI in vivo; design: species or system nude immuno-compromised mice; key: R: A responder is predicted when minimally 4 peptides have a ratio <0.8; NR = Non-Responder to MTKI
Method: (§1) To explore whether a similar approach allows for the classification of responder and non-responder tumors, the same strategy as above was applied to 12 different xenograft tumors, which were subcutaneously grown in nude immuno-compromised mice from human cancer cell lines. […] Lysates were made from homogenized frozen tumor blocks and analyzed in the absence or presence of 5 μM MTKI, as before.

[2] = test system: 27 cell lines, representing diverse cancer cell types; assay: Inhibition of proliferation of cell lines in vitro (response status); assay type: cell-based; design: key: R = Responder to MTKI; NR = Non-Responder to MTKI; details: MTKI
Method: It was tested whether the Pamchip peptide arrays are a useful tool to predict the response of a cell line to the multi-targeted kinase inhibitor, MTKI. MTKI inhibits the proliferation of a range of cell lines in vitro with widely varying IC50's. The lysates prepared from these 27 cell lines, representing diverse cancer cell types, were profiled on the peptide arrays in the absence or presence of 5 μM MTKI, in 6 replicates for each condition. In this panel, 13 cell lines were defined as responder cell lines (IC50<3 μM; cell lines are ordered according to increasing IC50 in Example 1, whereas 14 cell lines are classified as ‘non-responder’ cell lines (IC50>10 μM). Intermediary cell lines and cell lines with highly variable IC50 measurements were omitted from the analysis. The experiment included the highly responsive H3255 lung cancer cell line, which overexpresses mutant EGFR L858R. This mutant variant is highly responsive to MTKI, which is an ATP-competitive compound that binds to the active conformation of EGFR (similar to erlotinib and gefitinib). Accordingly, the most profound changes induced by MTKI in lysate kinase activity can be observed for this highly responsive cell line. To identify those peptides for which the inhibition of phosphorylation by MTKI correlates well with the response status of the cell line from which the lysate was prepared, a statistical mixed-model was set up to identify those peptides that are most likely to change after MTKI treatment in responder cell lysates compared to non-responder lysates, taken into account the inter-replicate variability (see the material and methods section for a more detailed description of the statistical test). […] To illustrate that the inhibition of the phosphorylation of these peptides in a given lysate does indeed correlate with the response of the corresponding cell line to MTKI, the following cut-off was chosen to classify responders and non-responders: minimally 4 peptides out of the 16 peptide list should be inhibited with a ratio of less than 0.8 (more than 20% inhibition) to classify as a responder. Applying this rule to all 27 cell lines indicates an overall classification accuracy of 82% (with 78% sensitivity, and 86% specificity). […] Note that the use of these […] peptides as a classification tool can be optimized according to the required sensitivity and specificity.

xenograft tumors [3] = assay: Response of subcutaneous xenograft tumors to MTKI in vivo; design: species or system nude immuno-compromised mice; key: R = Responder to MTKI; NR = Non-Responder to MTKI
Method: as §1

Measured: response status

COc1cc2ncnc3c2cc1OCCCCCN(C)Cc1ccc(Br)cc1N3 [MTKI, 4,6-ethanediylidenepyrimido[4,5-b][6,1,12]benzoxadiazacyclopentadecine, 17-bromo-8,9,10,11,12,13,14,19-octahydro-20-methoxy-13-methyl-]
NR: xenograft tumors [1]; H441 xenograft tumor | xenograft tumors [1]; H460 xenograft tumor | xenograft tumors [1]; H1703 xenograft tumor | xenograft tumors [1]; HT29 xenograft tumor | xenograft tumors [1]; PC3 xenograft tumor | xenograft tumors [1]; SKOV3 xenograft tumor | xenograft tumors [1]; U87MG xenograft tumor
R: [2]; A431 cell line | [2]; DU145 cell line | [2]; H2009 cell line | [2]; H3255 cell line | [2]; N87 cell line | [2]; SKBR3 cell line | [2]; SUM149 cell line | xenograft tumors [3]; A431 xenograft tumor | xenograft tumors [3]; BT474 xenograft tumor | xenograft tumors [3]; DU145 xenograft tumor | xenograft tumors [3]; H322 xenograft tumor | xenograft tumors [3]; H3255 xenograft tumor | xenograft tumors [3]; SUM149 xenograft tumor

Reference: patent publication US20100234238A1, “METHOD FOR PROFILING KINASE INHIBITORS” (Janssen Pharmaceutica N V, priority 2006, published 2010)
